# Measured values from PMC10239507, “Development of allosteric and selective CDK2 inhibitors for contraception with negative cooperativity to cyclin binding” (Nature Communications, 2023).
# How the values were obtained:
# Experiment in all cases: biochemical
# [1] = target: T1, 371 kinases (kinase named in each endpoint) (Homo sapiens, UniProt O00444); conditions: PLK4/SAK
# T1 construct: purchased Reaction Biology
# [2] = target: T2, 371 kinases (kinase named in each endpoint) (Homo sapiens, UniProt O14733); conditions: MKK7
# T2 construct: purchased Reaction Biology
# [3] = target: T3, 371 kinases (kinase named in each endpoint) (Homo sapiens, UniProt O15264); conditions: P38D/MAPK13
# T3 construct: purchased Reaction Biology
# [4] = target: T4, 371 kinases (kinase named in each endpoint) (Homo sapiens, UniProt O43293); conditions: ZIPK/DAPK3
# T4 construct: purchased Reaction Biology
# [5] = target: T5, 371 kinases (kinase named in each endpoint) (Homo sapiens, UniProt O43781); conditions: DYRK3
# T5 construct: purchased Reaction Biology
# T5 sequence (O43781 whole entry): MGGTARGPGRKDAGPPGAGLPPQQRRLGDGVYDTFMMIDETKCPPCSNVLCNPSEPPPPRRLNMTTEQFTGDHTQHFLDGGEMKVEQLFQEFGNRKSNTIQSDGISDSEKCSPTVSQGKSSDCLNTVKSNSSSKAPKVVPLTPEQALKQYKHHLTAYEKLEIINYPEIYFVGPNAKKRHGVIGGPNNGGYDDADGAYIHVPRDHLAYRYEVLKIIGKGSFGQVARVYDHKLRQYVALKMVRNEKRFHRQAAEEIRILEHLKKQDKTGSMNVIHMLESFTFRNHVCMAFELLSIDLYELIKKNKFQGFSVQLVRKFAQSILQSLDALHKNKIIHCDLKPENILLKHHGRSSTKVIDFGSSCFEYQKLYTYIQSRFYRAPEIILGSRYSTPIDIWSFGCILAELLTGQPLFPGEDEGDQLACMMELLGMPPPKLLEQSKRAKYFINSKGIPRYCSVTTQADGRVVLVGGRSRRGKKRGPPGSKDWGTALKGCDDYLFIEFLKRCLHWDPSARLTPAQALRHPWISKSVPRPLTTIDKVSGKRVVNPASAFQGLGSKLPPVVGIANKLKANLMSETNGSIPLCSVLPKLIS
# [6] = target: T6, 371 kinases (kinase named in each endpoint) (Homo sapiens, UniProt P05129); conditions: PKCG
# T6 construct: purchased Reaction Biology
# [7] = target: T7, 371 kinases (kinase named in each endpoint) (Homo sapiens, UniProt P10721); conditions: C-KIT
# T7 construct: purchased Reaction Biology
# [8] = target: T8, 371 kinases (kinase named in each endpoint) (Homo sapiens, UniProt P11362); conditions: FGFR1
# T8 construct: purchased Reaction Biology
# [9] = target: T9, 371 kinases (kinase named in each endpoint) (Homo sapiens, UniProt P11802)
# T9 construct: purchased Reaction Biology
# T9 sequence (P11802 whole entry): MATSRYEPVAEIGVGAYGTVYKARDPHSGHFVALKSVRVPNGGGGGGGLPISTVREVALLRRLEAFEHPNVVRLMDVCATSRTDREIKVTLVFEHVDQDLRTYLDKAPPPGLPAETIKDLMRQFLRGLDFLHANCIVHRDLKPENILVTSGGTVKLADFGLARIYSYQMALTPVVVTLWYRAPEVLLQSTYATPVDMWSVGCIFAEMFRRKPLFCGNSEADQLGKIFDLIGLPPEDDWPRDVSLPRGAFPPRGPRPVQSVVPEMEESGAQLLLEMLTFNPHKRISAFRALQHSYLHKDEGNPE
# [10] = target: T10, 371 kinases (kinase named in each endpoint) (Homo sapiens, UniProt P19784); conditions: CK2A2
# T10 construct: purchased Reaction Biology
# [11] = target: T11, 371 kinases (kinase named in each endpoint) (Homo sapiens, UniProt P21802); conditions: FGFR2
# T11 construct: purchased Reaction Biology
# [12] = target: T12, 371 kinases (kinase named in each endpoint) (Homo sapiens, UniProt P37023); conditions: ALK1/ACVRL1
# T12 construct: purchased Reaction Biology
# [13] = target: T13, 371 kinases (kinase named in each endpoint) (Homo sapiens, UniProt P42680); conditions: TEC
# T13 construct: purchased Reaction Biology
# [14] = target: T14, 371 kinases (kinase named in each endpoint) (Homo sapiens, UniProt P51451); conditions: BLK
# T14 construct: purchased Reaction Biology
# [15] = target: T15, 371 kinases (kinase named in each endpoint) (Homo sapiens, UniProt P51813); conditions: BMX/ETK
# T15 construct: purchased Reaction Biology
# [16] = target: T16, 371 kinases (kinase named in each endpoint) (Homo sapiens, UniProt P53671); conditions: LIMK2
# T16 construct: purchased Reaction Biology
# [17] = target: T17, 371 kinases (kinase named in each endpoint) (Homo sapiens, UniProt P53779); conditions: JNK3
# T17 construct: purchased Reaction Biology
# T17 sequence (P53779 whole entry): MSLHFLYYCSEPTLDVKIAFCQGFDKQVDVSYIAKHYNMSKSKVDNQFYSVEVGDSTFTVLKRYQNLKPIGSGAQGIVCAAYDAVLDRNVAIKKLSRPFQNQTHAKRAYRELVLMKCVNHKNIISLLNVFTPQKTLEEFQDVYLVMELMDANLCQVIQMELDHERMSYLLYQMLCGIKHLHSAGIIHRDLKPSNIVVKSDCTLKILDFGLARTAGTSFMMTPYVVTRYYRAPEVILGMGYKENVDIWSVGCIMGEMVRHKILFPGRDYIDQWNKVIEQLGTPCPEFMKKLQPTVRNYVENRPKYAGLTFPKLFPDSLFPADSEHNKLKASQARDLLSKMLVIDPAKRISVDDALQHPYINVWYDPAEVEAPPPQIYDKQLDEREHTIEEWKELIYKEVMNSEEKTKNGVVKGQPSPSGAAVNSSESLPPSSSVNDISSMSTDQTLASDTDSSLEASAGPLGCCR
# [18] = target: T18, 371 kinases (kinase named in each endpoint) (Homo sapiens, UniProt P54760); conditions: EPHB4
# T18 construct: purchased Reaction Biology
# T18 sequence (P54760 16-987): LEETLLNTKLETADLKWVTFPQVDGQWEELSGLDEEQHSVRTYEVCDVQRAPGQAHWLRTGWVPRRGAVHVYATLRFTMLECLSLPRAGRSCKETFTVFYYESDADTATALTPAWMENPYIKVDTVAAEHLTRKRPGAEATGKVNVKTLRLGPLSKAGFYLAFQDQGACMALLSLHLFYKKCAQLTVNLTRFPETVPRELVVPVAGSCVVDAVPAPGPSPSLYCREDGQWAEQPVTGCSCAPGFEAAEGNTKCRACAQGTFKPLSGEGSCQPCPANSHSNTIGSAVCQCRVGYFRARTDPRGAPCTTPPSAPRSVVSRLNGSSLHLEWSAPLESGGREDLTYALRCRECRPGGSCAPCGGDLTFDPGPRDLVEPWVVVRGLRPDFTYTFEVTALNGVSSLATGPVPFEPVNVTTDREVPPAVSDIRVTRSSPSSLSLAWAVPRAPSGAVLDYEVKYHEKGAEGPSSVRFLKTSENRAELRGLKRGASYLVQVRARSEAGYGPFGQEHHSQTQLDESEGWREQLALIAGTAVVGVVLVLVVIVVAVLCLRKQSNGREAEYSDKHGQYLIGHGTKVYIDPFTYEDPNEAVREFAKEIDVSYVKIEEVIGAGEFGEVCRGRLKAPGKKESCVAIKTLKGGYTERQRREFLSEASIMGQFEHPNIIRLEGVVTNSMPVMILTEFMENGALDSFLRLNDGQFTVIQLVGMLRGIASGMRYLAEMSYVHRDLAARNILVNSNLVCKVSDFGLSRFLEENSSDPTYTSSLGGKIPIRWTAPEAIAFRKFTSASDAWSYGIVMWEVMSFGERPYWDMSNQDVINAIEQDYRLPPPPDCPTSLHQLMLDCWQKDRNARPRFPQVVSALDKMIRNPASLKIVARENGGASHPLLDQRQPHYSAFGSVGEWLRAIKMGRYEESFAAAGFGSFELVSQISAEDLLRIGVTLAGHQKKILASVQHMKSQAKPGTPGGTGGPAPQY
# [19] = target: T19, 371 kinases (kinase named in each endpoint) (Homo sapiens, UniProt P54762); conditions: EPHB1
# T19 construct: purchased Reaction Biology
# [20] = target: T20, 371 kinases (kinase named in each endpoint) (Homo sapiens, UniProt P78368); conditions: CK1G2
# T20 construct: purchased Reaction Biology
# [21] = target: T21, 371 kinases (kinase named in each endpoint) (Homo sapiens, UniProt Q02763); conditions: TIE2/TEK
# T21 construct: purchased Reaction Biology
# [22] = target: T22, 371 kinases (kinase named in each endpoint) (Homo sapiens, UniProt Q05397); conditions: FAK/PTK2
# T22 construct: purchased Reaction Biology
# [23] = target: T23, 371 kinases (kinase named in each endpoint) (Homo sapiens, UniProt Q08345); conditions: DDR1
# T23 construct: purchased Reaction Biology
# [24] = target: T24, 371 kinases (kinase named in each endpoint) (Homo sapiens, UniProt Q13188); conditions: MST2/STK3
# T24 construct: purchased Reaction Biology
# [25] = target: T25, 371 kinases (kinase named in each endpoint) (Homo sapiens, UniProt Q14680); conditions: MELK
# T25 construct: purchased Reaction Biology
# [26] = target: T26, 371 kinases (kinase named in each endpoint) (Homo sapiens, UniProt Q15349); conditions: RSK3
# T26 construct: purchased Reaction Biology
# [27] = target: T27, 371 kinases (kinase named in each endpoint) (Homo sapiens, UniProt Q15418); conditions: RSK1
# T27 construct: purchased Reaction Biology
# T27 sequence (Q15418 whole entry): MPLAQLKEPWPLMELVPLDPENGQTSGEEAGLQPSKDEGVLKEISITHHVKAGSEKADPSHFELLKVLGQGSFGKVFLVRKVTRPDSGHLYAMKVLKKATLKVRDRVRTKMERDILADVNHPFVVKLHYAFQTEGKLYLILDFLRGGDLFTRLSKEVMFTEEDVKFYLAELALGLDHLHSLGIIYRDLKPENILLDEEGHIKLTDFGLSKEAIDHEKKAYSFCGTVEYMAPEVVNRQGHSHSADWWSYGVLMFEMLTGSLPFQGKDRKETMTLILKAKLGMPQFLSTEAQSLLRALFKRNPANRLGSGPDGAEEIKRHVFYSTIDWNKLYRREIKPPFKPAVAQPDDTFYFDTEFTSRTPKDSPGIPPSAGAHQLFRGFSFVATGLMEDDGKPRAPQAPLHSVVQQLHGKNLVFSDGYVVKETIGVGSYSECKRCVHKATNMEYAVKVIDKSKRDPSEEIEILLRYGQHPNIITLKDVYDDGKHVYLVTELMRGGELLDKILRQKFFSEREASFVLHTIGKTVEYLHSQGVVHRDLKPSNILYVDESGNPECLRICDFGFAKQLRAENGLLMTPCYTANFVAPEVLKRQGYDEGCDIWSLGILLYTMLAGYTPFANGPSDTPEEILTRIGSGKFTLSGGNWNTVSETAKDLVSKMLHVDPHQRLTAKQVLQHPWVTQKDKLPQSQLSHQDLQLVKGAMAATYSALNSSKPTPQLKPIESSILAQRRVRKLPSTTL
# [28] = target: T28, 371 kinases (kinase named in each endpoint) (Homo sapiens, UniProt Q15759); conditions: P38B/MAPK11
# T28 construct: purchased Reaction Biology
# [29] = target: T29, 371 kinases (kinase named in each endpoint) (Homo sapiens, UniProt Q86UX6); conditions: STK32C/YANK3
# T29 construct: purchased Reaction Biology
# [30] = target: T30, 371 kinases (kinase named in each endpoint) (Homo sapiens, UniProt Q86Z02); conditions: HIPK1
# T30 construct: purchased Reaction Biology
# [31] = target: T31, 371 kinases (kinase named in each endpoint) (Homo sapiens, UniProt Q8IW41); conditions: MAPKAPK5/PRAK
# T31 construct: purchased Reaction Biology
# [32] = target: T32, 371 kinases (kinase named in each endpoint) (Homo sapiens, UniProt Q96PN8); conditions: TSSK3/STK22C
# T32 construct: purchased Reaction Biology
# T32 sequence (Q96PN8 whole entry): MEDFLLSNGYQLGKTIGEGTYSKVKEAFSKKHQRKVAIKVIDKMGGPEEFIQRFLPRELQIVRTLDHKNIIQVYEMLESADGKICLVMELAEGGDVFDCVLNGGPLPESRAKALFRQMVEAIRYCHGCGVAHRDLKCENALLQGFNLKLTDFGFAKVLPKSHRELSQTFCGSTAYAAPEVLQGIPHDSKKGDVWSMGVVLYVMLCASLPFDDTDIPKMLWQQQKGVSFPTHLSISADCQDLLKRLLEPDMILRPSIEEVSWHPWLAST
# [33] = target: T33, 371 kinases (kinase named in each endpoint) (Homo sapiens, UniProt Q9BUB5); conditions: MNK1
# T33 construct: purchased Reaction Biology
# T33 sequence (Q9BUB5 whole entry): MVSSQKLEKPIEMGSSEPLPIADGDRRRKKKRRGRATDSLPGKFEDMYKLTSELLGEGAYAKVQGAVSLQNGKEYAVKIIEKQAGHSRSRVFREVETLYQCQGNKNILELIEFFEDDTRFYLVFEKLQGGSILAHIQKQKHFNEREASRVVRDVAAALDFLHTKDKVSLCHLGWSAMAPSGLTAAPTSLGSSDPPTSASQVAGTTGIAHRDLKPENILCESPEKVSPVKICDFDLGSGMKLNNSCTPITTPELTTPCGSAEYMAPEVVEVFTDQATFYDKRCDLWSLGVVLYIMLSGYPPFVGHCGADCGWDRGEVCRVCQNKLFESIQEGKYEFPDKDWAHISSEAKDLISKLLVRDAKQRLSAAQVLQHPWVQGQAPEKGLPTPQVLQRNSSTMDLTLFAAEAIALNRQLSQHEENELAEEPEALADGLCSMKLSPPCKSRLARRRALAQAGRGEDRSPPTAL
# [34] = target: T34, 371 kinases (kinase named in each endpoint) (Homo sapiens, UniProt Q9HBY8); conditions: SGK2
# T34 construct: purchased Reaction Biology
# [35] = target: T35, 371 kinases (kinase named in each endpoint) (Homo sapiens, UniProt Q9UHD2); conditions: TBK1
# T35 construct: purchased Reaction Biology
# [36] = target: T36, 371 kinases (kinase named in each endpoint) (Homo sapiens, UniProt Q9Y6M4); conditions: CK1G3
# T36 construct: purchased Reaction Biology
# T1 sequence (O00444 whole entry): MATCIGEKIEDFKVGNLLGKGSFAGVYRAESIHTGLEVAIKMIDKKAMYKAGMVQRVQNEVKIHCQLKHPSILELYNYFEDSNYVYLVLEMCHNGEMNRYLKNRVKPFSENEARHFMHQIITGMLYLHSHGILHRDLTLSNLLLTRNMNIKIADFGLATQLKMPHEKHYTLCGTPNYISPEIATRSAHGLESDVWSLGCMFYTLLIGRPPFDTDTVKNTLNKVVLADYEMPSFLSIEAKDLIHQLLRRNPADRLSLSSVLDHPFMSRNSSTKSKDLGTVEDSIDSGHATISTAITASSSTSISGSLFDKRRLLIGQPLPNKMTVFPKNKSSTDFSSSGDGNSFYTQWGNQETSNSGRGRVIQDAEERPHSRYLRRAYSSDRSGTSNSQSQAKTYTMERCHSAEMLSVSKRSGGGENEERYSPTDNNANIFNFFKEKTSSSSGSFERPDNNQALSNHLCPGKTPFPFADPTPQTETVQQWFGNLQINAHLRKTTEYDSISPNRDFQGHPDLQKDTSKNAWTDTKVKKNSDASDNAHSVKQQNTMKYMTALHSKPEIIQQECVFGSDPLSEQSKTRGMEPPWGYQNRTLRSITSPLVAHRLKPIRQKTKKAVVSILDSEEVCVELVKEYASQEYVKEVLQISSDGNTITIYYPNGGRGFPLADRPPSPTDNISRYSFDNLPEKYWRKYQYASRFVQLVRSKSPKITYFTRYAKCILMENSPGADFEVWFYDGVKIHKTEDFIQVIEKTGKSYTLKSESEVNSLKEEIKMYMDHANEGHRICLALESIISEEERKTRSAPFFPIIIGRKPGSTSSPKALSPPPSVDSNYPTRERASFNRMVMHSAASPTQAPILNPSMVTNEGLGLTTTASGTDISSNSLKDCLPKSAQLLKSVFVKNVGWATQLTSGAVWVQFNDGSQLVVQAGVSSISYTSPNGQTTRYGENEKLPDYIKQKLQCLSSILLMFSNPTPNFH
structure (smiles),measurement,setting,value
"O=C(O)c1cc(C(F)(F)F)ccc1NCCc1c[nH]c2cc(Br)ccc12 [Compound 5, 2-((2-(6-Bromo-1H-indol-3-yl)ethyl)amino)−5-(trifluoromethyl)benzoic Acid]",activity at 10 µM,[1],91.2 ± 1.2%
same,activity at 10 µM,[2],90.6 ± 0.3%
same,activity at 10 µM,[3],80.9 ± 2.2%
same,activity at 10 µM,[4],74.5 ± 3.3%
same,activity at 10 µM,[5],57.3 ± 2.4%
same,activity at 10 µM,[6],81.9 ± 1.6%
same,activity at 10 µM,[7],84.5 ± 2.5%
same,activity at 10 µM,[8],102.6 ± 0.3%
same,activity at 10 µM,[9]; CDK4/CYCLIN D1,80.1 ± 2.6%
same,activity at 10 µM,[9]; CDK4/CYCLIN D2,29.1 ± 0.1%
same,activity at 10 µM,[9]; CDK4/CYCLIN D3,82.9 ± 0.6%
same,activity at 10 µM,[10],46.9 ± 0.5%
same,activity at 10 µM,[11],101.3 ± 0.5%
same,activity at 10 µM,[12],67.3 ± 1.4%
same,activity at 10 µM,[13],101 ± 1.6%
same,activity at 10 µM,[14],92.7 ± 1.3%
same,activity at 10 µM,[15],101.8 ± 0.4%
same,activity at 10 µM,[16],75.1 ± 1.7%
same,activity at 10 µM,[17],90.9 ± 0.3%
same,activity at 10 µM,[18],91.7 ± 0.5%
same,activity at 10 µM,[19],91.2%
same,activity at 10 µM,[20],102 ± 1.6%
same,activity at 10 µM,[21],93.7 ± 0.9%
same,activity at 10 µM,[22],88.2 ± 1.5%
same,activity at 10 µM,[23],87.7 ± 0.4%
same,activity at 10 µM,[24],134 ± 0.4%
same,activity at 10 µM,[25],95.8 ± 3%
same,activity at 10 µM,[26],87 ± 1.4%
same,activity at 10 µM,[27],83.1 ± 2.8%
same,activity at 10 µM,[28],140 ± 2.3%
same,activity at 10 µM,[29],100.2 ± 0.6%
same,activity at 10 µM,[30],64.9 ± 0.2%
same,activity at 10 µM,[31],95.4 ± 2%
same,activity at 10 µM,[32],68.9 ± 0.2%
same,activity at 10 µM,[33],79 ± 0.9%
same,activity at 10 µM,[34],63.9 ± 2%
same,activity at 10 µM,[35],117 ± 1.2%
same,activity at 10 µM,[36],96.3 ± 0.6%
